Results as given in patent publication US9951025B2, “Halogenopyrazoles as inhibitors of thrombin” (VERSEON CORPORATION, priority 2013, dated 2018).

target: T1, Human thrombin (Homo sapiens, UniProt P00734); assay: thrombin protease inhibition assay, chromogenic substrate S-2238; assay type: biochemical; conditions: 3 nM human thrombin, 125 μM S-2238, 10 min pre-incubation, RT
T1 construct: purchased Haematologic Technologies Inc
Method: Compounds described herein can be assayed, by a variety of methods known in the art and described herein, for inhibition of biological activity, e.g., protease activity, of a variety of proteins, e.g., thrombin.
The thrombin activity reported herein (e.g., Table A) was obtained as follows. […] Thrombin was assayed in buffer containing 0.05 M Tris (pH 7.4), 0.015 M NaCl and 0.01% PEG-8000. The final concentration of enzyme used was 3 nM thrombin. […] All assays were performed in 96-well microtiter plates at room temperature (RT). […] Inhibitor IC50 values were determined by adding test compound as ten point, three-fold serial dilutions in buffer solution, as known in the art. The plate was read at 10 minutes after substrate addition. The IC50 was calculated by plotting the percent (%) inhibition against compound concentration and fitting the data to a constrained four parameter sigmoidal curve, as known in the art.

SMILES	IC50 [nM]
CN(C)c1cccc2c(S(=O)(=O)N3CCC(c4nn(C(=O)C(C)(C)CO)c(NCc5ccc(Cl)s5)c4F)CC3)cccc12 [Compound 1, 1-(5-[(5-chlorothiophen-2-yl)methyl]amino-3-(1-[5-(dimethylamino)naphthalen-1-yl]sulfonylpiperidin-4-yl)-4-fluoro-1H-pyrazol-1-yl)-3-hydroxy-2,2-dimethylpropan-1-one]	< 100
COCC(C)(C)C(=O)n1nc(C2CCOCC2)c(F)c1NCc1ccc(Cl)s1 [Compound 5, 1-(5-[(5-chlorothiophen-2-yl)methyl]amino-4-fluoro-3-(oxan-4-yl)-1H-pyrazol-1-yl)-3-methoxy-2,2-dimethylpropan-1-one]	< 100
COC(C)(C)C(=O)n1nc(C2CCNCC2)c(F)c1NCc1ccc(Cl)s1 [Compound 7, 1-(5-[(5-chlorothiophen-2-yl)methyl]amino-4-fluoro-3-(piperidin-4-yl)-1H-pyrazol-1-yl)-2-methoxy-2-methylpropan-1-one]	< 100
COCC(C)(C)C(=O)n1nc(C2CCNCC2)c(F)c1NCc1ccc(Cl)s1 [Compound 9, 1-(5-[(5-chlorothiophen-2-yl)methyl]amino-4-fluoro-3-(piperidin-4-yl)-1H-pyrazol-1-yl)-3-methoxy-2,2-dimethylpropan-1-one]	< 100
O=C1CCCN1c1ccc(-c2nn(C(=O)c3cccc4c3OCCO4)c(NCc3ccc(Cl)s3)c2F)cc1 [Compound 17, 1-[4-(5-[(5-chlorothiophen-2-yl)methyl]amino-1-(2,3-dihydro-1,4-benzodioxine-5-carbonyl)-4-fluoro-1H-pyrazol-3-yl)phenyl]pyrrolidin-2-one]	< 100
COc1ccccc1C(=O)n1nc(-c2ccc(C(O)C(F)(F)F)cc2)c(F)c1NCc1ccc(Cl)s1 (stereo not drawn) [Compound 18, 1-[4-(5-[(5-chlorothiophen-2-yl)methyl]amino-4-fluoro-1-(2-methoxybenzoyl)-1H-pyrazol-3-yl)phenyl]-2,2,2-trifluoroethan-1-ol]	> 1000
COc1ccccc1C(=O)n1nc(-c2ccc(N3CCCC3=O)cc2)c(F)c1NCc1ccc(Cl)s1 [Compound 19, 1-[4-(5-[(5-chlorothiophen-2-yl)methyl]amino-4-fluoro-1-(2-methoxybenzoyl)-1H-pyrazol-3-yl)phenyl]pyrrolidin-2-one]	< 100
O=C1CCCN1c1ccc(-c2nn(C(=O)c3ccoc3)c(NCc3ccc(Cl)s3)c2F)cc1 [Compound 20, 1-[4-(5-[(5-chlorothiophen-2-yl)methyl]amino-4-fluoro-1-(furan-3-carbonyl)-1H-pyrazol-3-yl)phenyl]pyrrolidin-2-one]	> 1000
O=C(N1CCC(c2n[nH]c(NCc3ccc(Cl)s3)c2F)CC1)C1(O)CC1 [Compound 21, 1-[4-(5-[(5-chlorothiophen-2-yl)methyl]amino-4-fluoro-1H-pyrazol-3-yl)piperidine-1-carbonyl]cyclopropan-1-ol]	100 to 1000
CC(C)(C)C(=O)n1nc(-c2ccccn2)c(F)c1NCc1ccccc1 [Compound 22, 1-[5-(benzylamino)-4-fluoro-3-(pyridin-2-yl)-1H-pyrazol-1-yl]-2,2-dimethylpropan-1-one]	< 100
O=C(c1ccccc1)n1nc(C2CCOCC2)c(F)c1NCc1ccc(Cl)s1 [Compound 24, 1-benzoyl-N-[(5-chlorothiophen-2-yl)methyl]-4-fluoro-3-(oxan-4-yl)-1H-pyrazol-5-amine]	< 100
O=C(c1ccccc1)n1nc(NCc2ccc(Cl)s2)c(F)c1C1CCOCC1 [Compound 25, 1-benzoyl-N-[(5-chlorothiophen-2-yl)methyl]-4-fluoro-5-(oxan-4-yl)-1H-pyrazol-3-amine]	> 1000
CN(C)c1cccc2c(S(=O)(=O)Oc3ccccc3C(=O)n3nc(-c4ccccc4)c(F)c3NCc3ccc(Cl)s3)cccc12 [Compound 26, 2-(5-[(5-chlorothiophen-2-yl)methyl]amino-4-fluoro-3-phenyl-1H-pyrazole-1-carbonyl)phenyl 5-(dimethylamino)naphthalene-1-sulfonate]	100 to 1000
CN(C)c1cccc2c(S(=O)(=O)Oc3ccc(C(=O)n4nc(-c5ccccc5)c(F)c4NCc4ccc(Cl)s4)cc3)cccc12 [Compound 27, 4-(5-[(5-chlorothiophen-2-yl)methyl]amino-4-fluoro-3-phenyl-1H-pyrazole-1-carbonyl)phenyl 5-(dimethylamino)naphthalene-1-sulfonate]	> 1000
CC(C)(C)C(=O)n1nc(-c2ccc(N3CCOCC3=O)cc2)c(F)c1NCc1ccc(Cl)s1 [Compound 28, 4-[4-(5-[(5-chlorothiophen-2-yl)methyl]amino-1-(2,2-dimethylpropanoyl)-4-fluoro-1H-pyrazol-3-yl)phenyl]morpholin-3-one]	< 100

The remaining lines, values ahead:

IC50 [nM]	SMILES
> 1000	CC(C)(C)C(=O)n1nc(-c2ccc3c(c2)CCCC3O)c(F)c1NCc1ccc(Cl)s1 (stereo not drawn) [Compound 2, 1-(5-[(5-chlorothiophen-2-yl)methyl]amino-4-fluoro-3-(5-hydroxy-5,6,7,8-tetrahydronaphthalen-2-yl)-1H-pyrazol-1-yl)-2,2-dimethylpropan-1-one]
< 100	CC(C)(C)C(=O)n1nc(-c2ccccc2)c(F)c1NCc1ccc(Cl)s1 [Compound 10, 1-(5-[(5-chlorothiophen-2-yl)methyl]amino-4-fluoro-3-phenyl-1H-pyrazol-1-yl)-2,2-dimethylpropan-1-one]
< 100	CC(C)(O)C(=O)n1nc(-c2ccccc2)c(F)c1NCc1ccc(Cl)s1 [Compound 11, 1-(5-[(5-chlorothiophen-2-yl)methyl]amino-4-fluoro-3-phenyl-1H-pyrazol-1-yl)-2-hydroxy-2-methylpropan-1-one]
< 100	COC(C)(C)C(=O)n1nc(-c2ccccc2)c(F)c1NCc1ccc(Cl)s1 [Compound 12, 1-(5-[(5-chlorothiophen-2-yl)methyl]amino-4-fluoro-3-phenyl-1H-pyrazol-1-yl)-2-methoxy-2-methylpropan-1-one]
< 100	COCCOCC(C)(C)C(=O)n1nc(-c2ccccc2)c(F)c1NCc1ccc(Cl)s1 [Compound 13, 1-(5-[(5-chlorothiophen-2-yl)methyl]amino-4-fluoro-3-phenyl-1H-pyrazol-1-yl)-3-(2-methoxyethoxy)-2,2-dimethylpropan-1-one]
< 100	CC(C)(CO)C(=O)n1nc(-c2ccccc2)c(F)c1NCc1ccc(Cl)s1 [Compound 14, 1-(5-[(5-chlorothiophen-2-yl)methyl]amino-4-fluoro-3-phenyl-1H-pyrazol-1-yl)-3-hydroxy-2,2-dimethylpropan-1-one]
< 100	COCC(C)(C)C(=O)n1nc(-c2ccccc2)c(F)c1NCc1ccc(Cl)s1 [Compound 15, 1-(5-[(5-chlorothiophen-2-yl)methyl]amino-4-fluoro-3-phenyl-1H-pyrazol-1-yl)-3-methoxy-2,2-dimethylpropan-1-one]
< 100	CC(C)(C)C(=O)n1nc(-c2ccc(N3CCCC3=O)cc2)c(F)c1NCc1ccc(Cl)s1 [Compound 16, 1-[4-(5-[(5-chlorothiophen-2-yl)methyl]amino-1-(2,2-dimethylpropanoyl)-4-fluoro-1H-pyrazol-3-yl)phenyl]pyrrolidin-2-one]
< 100	CC(C)(C)C(=O)n1nc(-c2ccccc2)c(F)c1NCc1ccccc1 [Compound 23, 1-[5-(benzylamino)-4-fluoro-3-phenyl-1H-pyrazol-1-yl]-2,2-dimethylpropan-1-one]
